# What was measured:
# Assay type in all cases: cell-based, human
# [1] = test system: GBM8 (high-passage patient-derived GBM line); assay: Drug screening of GBM8 tumor foci on OBSCs; details: for Killing at highest dose / AUC / EC10 / EC25 / EC75 / Slope / EC50 / IC50: GBM8 on OBSCs; for AUC: area under the dose-response curve, trapezoidal rule; for EC10: dose required to kill 10% of the tumor; for EC25: dose required to kill 25% of the tumor; for EC75: dose required to kill 75% of the tumor; for Slope: slope through the EC50; for EC90 / EC50 / IC50: Homo sapiens; for EC50: dose required to kill 50% of the tumor, read-out: EC50; for IC50: dosed day 1, survival via bioluminescence day 4, linear interpolation, read-out: IC50
# Procedure: (§1) Tumor cells (0.17 μL, 25,000 cells) were seeded onto OBSCs 2h after slicing, with one tumor seeded in the center of each hemisphere for a total of two tumor foci per OBSC. BSM was changed 24h after slicing. Fluorescence images were taken 0 h, 24 h, and 96 h post-seeding for normalization of tumor size. Bioluminescence readouts were also taken at 0 h, 24 h, and 96 h post seeding for assessment of cell viability. Luciferin was added underneath the culture insert and allowed to incubate for 10 min before bioluminescence measurement on an AMI optical imaging system.
# (§2) Tumor cells were seeded onto OBSCs 2h after slicing as described above. One day after tumor seeding, six concentrations of each drug were diluted in the media underneath each culture insert, or XRad was applied using an X-Rad 320 Precision X-ray machine (n = 4 tumor foci per concentration; n ≥ 24 tumor foci per drug per cell line). Three days after treatment, the bioluminescence of live tumor cells was measured using an AMI optical imager (Spectral Instruments) and dose-response curves were generated. Tumor survival was normalized to day one tumor fluorescence and compared to an untreated control group.
# (§3) Several weighted parameters were factored into an overall drug sensitivity score.
# (§4) For DSS parameters 1–6, therapeutic windows were calculated by comparing OBSC toxicity and tumor response at the doses where tumor kill passed through the DSS parameter (Table S1 and S3). For DSS parameter 7, the therapeutic window was calculated by comparing the slopes through the tumor EC50 and the OBSC tox EC50. For DSS parameter 8, the therapeutic window was calculated by comparing the areas under tumor kill and OBSC tox curves. Normalized therapeutic window ratios for DSS parameters 1–8 within each drug-tumor-OBSC interaction were calculated in the following manner: within each window, values ranged from +1 to −1, where values approaching +1 signify increasing tumor kill relative to normal tissue toxicity, and values approaching −1 indicate agents where tumors remained highly viable while toxicity to the normal OBSC tissue was elevated. DSS parameters 9–11 were determined based on the behavior of the tumor in response to the drug, as defined above.
# (§5) All individually weighed parameters were added together to generate the DSS. Overall DSS from 0 to 100 signify increasing efficacy in tumor kill relative to OBSC toxicity, while scores from 0 to −100 describe scenarios in which tumors thrive more effectively than OBSCs for a given treatment. Dose-response values were calculated via linear interpolation of raw data, not from best-fit curve equations.
# [2] = test system: MB231Br (breast cancer metastasis to brain); assay: Drug screening of MB231Br tumor foci on OBSCs; details: for EC50 / EC90 / IC50: Homo sapiens; for EC50: dose required to kill 50% of the tumor; for EC90: dose required to kill 90% of the tumor; for IC50: MB231Br on OBSCs, dosed day 1, survival via bioluminescence day 4, linear interpolation; for Slope: slope through the EC50
# [3] = test system: PDIPG (low-passage pediatric patient-derived line); assay: Drug screening of PDIPG tumor foci on OBSCs; details: for EC90 / EC50 / IC50: Homo sapiens; for EC50: dose required to kill 50% of the tumor, read-out: EC50; for IC50: dosed day 1, survival via bioluminescence day 4, linear interpolation, read-out: IC50; for AUC: area under the dose-response curve, trapezoidal rule; for EC25: dose required to kill 25% of the tumor; for Slope: slope through the EC50
# Procedure: as §1, §2, §3, §4, §5
# [4] = test system: U373WT (wild-type established GBM line); assay: Drug screening of U373WT tumor foci on OBSCs; details: U373 WT on OBSCs; for EC50 / EC90 / IC50: Homo sapiens, U373 MG; for EC50: dose required to kill 50% of the tumor; for EC90: dose required to kill 90% of the tumor; for IC50: dosed day 1, survival via bioluminescence day 4, linear interpolation; for AUC: area under the dose-response curve, trapezoidal rule; for EC10: dose required to kill 10% of the tumor; for Slope: slope through the EC50
# Procedure: as §1, §2, §3, §4, §5
# [5] = test system: LN229 (established GBM line); assay: Drug screening of LN229 tumor foci on OBSCs; details: for EC50 / EC90 / IC50: Homo sapiens; for EC50: LN-229, dose required to kill 50% of the tumor; for EC90: LN-229, dose required to kill 90% of the tumor; for IC50: LN-229, dosed day 1, survival via bioluminescence day 4, linear interpolation; for AUC: area under the dose-response curve, trapezoidal rule; for EC10: dose required to kill 10% of the tumor; for EC25: dose required to kill 25% of the tumor; for Slope: slope through the EC50
# Procedure: as §1, §2, §3, §4, §5
# [6] = test system: MS21 (low-passage patient-derived GBM line); assay: Drug screening of MS21 tumor foci on OBSCs; details: for EC90 / EC50 / IC50: Homo sapiens; for EC50: dose required to kill 50% of the tumor, read-out: EC50; for IC50: dosed day 1, survival via bioluminescence day 4, linear interpolation, read-out: IC50
# Procedure: as §1, §2, §3, §4, §5
# [7] = test system: PIS patient tumor tissue (intracranial sarcoma); assay: Drug screening of uncultured patient tumor tissue PIS on OBSCs; details: Homo sapiens; PIS on OBSCs; dose required to kill 90% of the tumor
# Procedure: as §2
# To engraft onto OBSCs, the cryopreserved/thawed or fresh brain tumor tissue was filtered through a 100 μm cell strainer. Each 50 mg of tissue was transfected with 1mL mcherry-FLuc Lentivirus at 1.5e7 vg/ml with 1μL polybrene for 4h at 37°C. After incubation, the brain tumor tissue was washed with PBS three times to remove the residual virus and reconstituted in PBS with a final volume of 150 μL. Then the tissue solution was engrafted atop OBSCs at ∼0.5 mg tissue in 3 μL of PBS on each hemisphere of the slice. The OBSC engrafted with patient tumor tissue was incubated at 37°C with 5% CO2 and 95% humidity. The BSM was changed after 24h and subsequently every 3 days. Tumor treatment studies were executed as described above for tumor lines. The viability of the patient tissue was measured by an AMI optical imaging system with the addition of 1.5 mg/mL luciferin underneath the culture insert.
# as §3, §4, §5
# [8] = test system: U373KO (RAD18 knockout of U373WT via CRISPR); assay: Drug screening of U373KO tumor foci on OBSCs; details: U373 KO on OBSCs; for EC50 / EC90 / IC50: Homo sapiens, U373 MG; for EC50: dose required to kill 50% of the tumor; for EC90: dose required to kill 90% of the tumor; for IC50: dosed day 1, survival via bioluminescence day 4, linear interpolation; for AUC: area under the dose-response curve, trapezoidal rule
# Procedure: as §1, §2, §3, §4, §5
# [9] = dose required to kill 25% of the tumor
structure (smiles),measurement,setting,value
Nc1ccn([C@@H]2O[C@H](CO)[C@@H](O)C2(F)F)c(=O)n1 [Gemcitabine],Killing at highest dose,[1],9.80E-01 fraction of tumor population killed
same,AUC,[1],2.79E+00
same,EC10,[1],0.0676 µM
same,EC25,[1],0.169 µM
same,EC75,[1],0.533 µM
same,Slope,[1],-1.48E+00
same,EC90,[1],2 µM
same,EC50,[1],0.338 µM
same,IC50,[1],0.34 µM
same,EC50,[2]; MB231BR on OBSCs,> 10 µM
same,EC90,[2]; MB231BR on OBSCs,> 10 µM
same,IC50,[2],> 10 µM
same,Killing at highest dose,[2]; MB231BR on OBSCs,-7.90E-01 fraction of tumor population killed
same,Slope,[2]; MB231BR on OBSCs,1.56E-02
same,EC90,[3],> 10 µM
same,EC50,[3]; PDIPG on OBSCs,> 10 µM
same,IC50,[3]; PDIPG on OBSCs,> 10 µM
same,Killing at highest dose,[3]; PDIPG on OBSCs,4.80E-01 fraction of tumor population killed
same,AUC,[3]; PDIPG on OBSCs,5.72E+01
same,EC25,[3]; PDIPG on OBSCs,0.284 µM
same,Slope,[3]; PDIPG on OBSCs,-3.03E-04
same,EC50,[4],> 10 µM
same,EC90,[4],> 10 µM
same,IC50,[4],> 10 µM
same,Killing at highest dose,[4],3.30E-01 fraction of tumor population killed
same,AUC,[4],7.29E+01
same,EC10,[4],0.385 µM
same,EC25,[4]; [9],50 µM
same,Slope,[4],-1.60E-03
same,Killing at highest dose,[5],2.80E-01 fraction of tumor population killed
same,EC50,[5],> 10 µM
same,EC90,[5],> 10 µM
same,IC50,[5],> 10 µM
same,AUC,[5],7.06E+01
same,EC10,[5],6.23 µM
same,EC25,[5],8.4 µM
same,Slope,[5],-5.45E-03
same,EC90,[6],> 10 µM
same,EC50,[6]; MS21 on OBSCs,> 10 µM
same,IC50,[6]; MS21 on OBSCs,> 10 µM
same,Killing at highest dose,[6]; MS21 on OBSCs,-1.20E-01 fraction of tumor population killed
same,EC90,[7],> 10 µM
same,EC50,[8],0.868 µM
same,EC90,[8],> 10 µM
same,IC50,[8],0.9 µM
same,Killing at highest dose,[8],6.20E-01 fraction of tumor population killed
same,AUC,[8],3.67E+01
same,EC10,[8]; dose required to kill 10% of the tumor,0.139 µM
same,EC25,[8]; [9],0.347 µM
same,Slope,[8]; slope through the EC50,-3.80E-01
CC[C@]1(O)C[C@H]2CN(CCc3c([nH]c4ccccc34)[C@@](C(=O)OC)(c3cc4c(cc3OC)N(C=O)[C@H]3[C@@](O)(C(=O)OC)[C@H](OC(C)=O)[C@]5(CC)C=CCN6CC[C@]43[C@@H]65)C2)C1 [Vincristine],Killing at highest dose,[1],1.00E+00 fraction of tumor population killed
same,AUC,[1],2.38E-01
same,EC10,[1],0.00435 µM
same,EC25,[1],0.0129 µM
same,EC75,[1],0.0843 µM
same,Slope,[1],-7.00E+00
same,EC90,[1],0.26 µM
same,EC50,[1],0.0486 µM
same,IC50,[1],0.05 µM
same,EC50,[2]; MB231BR on OBSCs,> 10 µM
same,EC90,[2]; MB231BR on OBSCs,> 10 µM
same,IC50,[2],> 10 µM
same,Killing at highest dose,[2]; MB231BR on OBSCs,7.00E-02 fraction of tumor population killed
same,AUC,"[2]; MB231BR on OBSCs, area under the dose-response curve, trapezoidal rule",1.02E+01
same,Slope,[2]; MB231BR on OBSCs,-1.89E-02
same,EC90,[3],> 10 µM
same,EC50,[3]; PDIPG on OBSCs,> 10 µM
same,IC50,[3]; PDIPG on OBSCs,> 10 µM
same,Killing at highest dose,[3]; PDIPG on OBSCs,4.86E-01 fraction of tumor population killed
same,AUC,[3]; PDIPG on OBSCs,6.36E+00
same,EC10,"[3]; PDIPG on OBSCs, dose required to kill 10% of the tumor",0.242 µM
same,EC25,[3]; PDIPG on OBSCs,0.406 µM
same,Slope,[3]; PDIPG on OBSCs,-2.32E-02
same,EC50,[4],> 10 µM
same,EC90,[4],> 10 µM
same,IC50,[4],> 10 µM
same,Killing at highest dose,[4],-6.60E-01 fraction of tumor population killed
same,AUC,[4],1.36E+01
same,EC10,[4],0.82 µM
same,Slope,[4],5.78E-02
same,Killing at highest dose,[5],4.10E-01 fraction of tumor population killed
same,EC50,[5],> 10 µM
same,EC90,[5],> 10 µM
same,IC50,[5],> 10 µM
same,AUC,[5],6.37E+00
same,EC10,[5],0.00667 µM
same,EC25,[5],0.418 µM
same,Slope,[5],-8.89E-03
same,EC90,[6],> 10 µM
same,EC50,[6]; MS21 on OBSCs,4.6 µM
same,IC50,[6]; MS21 on OBSCs,4.6 µM
same,Killing at highest dose,[6]; MS21 on OBSCs,5.30E-01 fraction of tumor population killed
same,AUC,"[6]; MS21 on OBSCs, area under the dose-response curve, trapezoidal rule",5.22E+00
same,EC10,"[6]; MS21 on OBSCs, dose required to kill 10% of the tumor",0.00526 µM
same,EC25,"[6]; MS21 on OBSCs, dose required to kill 25% of the tumor",0.172 µM
same,Slope,"[6]; MS21 on OBSCs, slope through the EC50",-5.56E-03
same,EC90,[7],> 10 µM
same,EC50,[8],> 10 µM
same,EC90,[8],> 10 µM
same,IC50,[8],> 10 µM
same,Killing at highest dose,[8],-7.40E-01 fraction of tumor population killed
same,AUC,[8],1.89E+01

# Reference: paper PMC10313921, “A living ex vivo platform for functional, personalized brain cancer diagnosis” (Cell Reports Medicine, 2023)
